# Results reported in ChEMBL document CHEMBL5257080, “Optimization of physicochemical properties of pyrrolidine GPR40 AgoPAMs results in a differentiated profile with improved pharmacokinetics and reduced off-target activities” (Bioorg Med Chem, 2023).
# Active and inactive are the calls of the source. The calls are words filed in the database; no cut-off is given here.
# Assays:
# [1] = AUC (0 to 24 hrs) in rat at 12 mg/kg qd; type: ADME, organism-based; set-up: dose 12 mg/kg; details: in vivo
# [2] = Solubility of the compound in FeSSIF at pH 6.5; type: ADME
# [3] = Metabolic stability in human liver microsome assessed as parent compound remaining after 10 mins; type: ADME; details: liver microsomes, read-out: Stability
# Cytochrome P450 2C9 = Cytochrome P450 2C9 (Homo sapiens, UniProt P11712); test: Inhibition of CYP2C9 in human liver microsomes; type: ADME, Microsome
# Chain of Cytochrome P450 2C9 (P11712 whole entry): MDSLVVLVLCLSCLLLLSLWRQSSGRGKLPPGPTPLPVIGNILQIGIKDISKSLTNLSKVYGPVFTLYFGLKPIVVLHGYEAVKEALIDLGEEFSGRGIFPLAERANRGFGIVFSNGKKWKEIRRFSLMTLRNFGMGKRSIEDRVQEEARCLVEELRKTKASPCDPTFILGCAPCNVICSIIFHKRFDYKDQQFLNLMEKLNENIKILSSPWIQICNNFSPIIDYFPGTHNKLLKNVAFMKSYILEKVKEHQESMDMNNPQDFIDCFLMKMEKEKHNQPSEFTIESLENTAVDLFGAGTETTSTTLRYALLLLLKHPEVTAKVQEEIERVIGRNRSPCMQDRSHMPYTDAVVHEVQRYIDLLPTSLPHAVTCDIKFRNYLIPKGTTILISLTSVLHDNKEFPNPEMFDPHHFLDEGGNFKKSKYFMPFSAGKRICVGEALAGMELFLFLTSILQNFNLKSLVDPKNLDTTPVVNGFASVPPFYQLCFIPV
# [4] = Lipophilicity, logD of compound; type: physicochemical; details: octanol/water
# [5] = target: T1, Free fatty acid receptor 1 (Homo sapiens, UniProt O14842); test: Positive allosteric modulation of human GPR40 by calcium based FLIPR analysis
# T1 sequence (O14842 whole entry): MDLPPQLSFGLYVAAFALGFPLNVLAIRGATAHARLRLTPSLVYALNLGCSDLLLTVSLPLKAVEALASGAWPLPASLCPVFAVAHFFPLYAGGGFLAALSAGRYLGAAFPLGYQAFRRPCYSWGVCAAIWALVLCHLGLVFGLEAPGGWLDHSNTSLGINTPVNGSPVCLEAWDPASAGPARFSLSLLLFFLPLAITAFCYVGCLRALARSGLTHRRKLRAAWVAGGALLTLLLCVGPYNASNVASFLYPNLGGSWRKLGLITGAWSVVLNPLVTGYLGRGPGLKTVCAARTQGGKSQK
# Cytochrome P450 2B6 = target: T2, Cytochrome P450 2B6 (Homo sapiens, UniProt P20813); test: Inhibition of CYP2B6 in human liver microsomes; type: ADME, Microsome
# T2 sequence (P20813 whole entry): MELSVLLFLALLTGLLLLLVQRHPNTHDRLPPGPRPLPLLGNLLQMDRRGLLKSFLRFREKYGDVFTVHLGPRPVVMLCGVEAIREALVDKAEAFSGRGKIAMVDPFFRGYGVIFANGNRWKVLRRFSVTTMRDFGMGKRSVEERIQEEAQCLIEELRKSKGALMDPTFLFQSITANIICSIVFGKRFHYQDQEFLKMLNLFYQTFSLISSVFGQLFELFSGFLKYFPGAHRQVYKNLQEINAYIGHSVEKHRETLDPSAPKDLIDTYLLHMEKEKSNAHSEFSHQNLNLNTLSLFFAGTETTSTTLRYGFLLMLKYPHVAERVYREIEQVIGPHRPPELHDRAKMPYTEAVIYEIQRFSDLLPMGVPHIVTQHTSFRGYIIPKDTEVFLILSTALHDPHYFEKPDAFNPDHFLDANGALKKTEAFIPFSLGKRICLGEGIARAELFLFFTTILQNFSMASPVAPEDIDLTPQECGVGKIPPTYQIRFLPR
# [6] = AUC (0 to 24 hrs) in rat at 100 mg/kg, po qd; type: ADME, organism-based; set-up: dose 100 mg/kg, route po; details: in vivo
# [7] = Toxicity in rat assessed as reduction in cell number at 100 mg/kg measured for 28 days; type: organism-based; details: in vivo, time 28 day
# [8] = Oral bioavailability in mouse at 1 mg/kg; type: ADME, organism-based; details: in vivo
# [9] = Cmax in rat at 12 mg/kg qd; type: ADME, organism-based; set-up: dose 12 mg/kg; details: in vivo
# Rattus norvegicus [10] = test: Hyperglycemic activity in Sprague-Dawley rat assessed as effect on blood glucose level at 30 to 100 mg/kg, qd by glucometer; type: functional, organism-based; details: dose 30-100 mg/kg
# [11] = Half life in rat at 3 mg/kg, iv; type: ADME, organism-based; details: in vivo
# [12] = Metabolic stability in rat liver microsome assessed as parent compound remaining after 10 mins; type: ADME; details: liver microsomes, read-out: Stability
# [13] = Permeability of compound across apical to basolateral side in dog MDCK cells; type: ADME, cell-based, Canis lupus familiaris; details: read-out: permeability
# [14] = Half life in mouse at 3 mg/kg, iv; type: ADME, organism-based; details: in vivo
# [15] = Plasma protein binding in human assessed as fraction unbound; type: ADME, cell-free
# Cytochrome P450 2D6 = Cytochrome P450 2D6 (Homo sapiens, UniProt P10635); test: Inhibition of CYP2D6 in human liver microsomes; type: ADME, Microsome
# Chain of Cytochrome P450 2D6 (P10635 whole entry): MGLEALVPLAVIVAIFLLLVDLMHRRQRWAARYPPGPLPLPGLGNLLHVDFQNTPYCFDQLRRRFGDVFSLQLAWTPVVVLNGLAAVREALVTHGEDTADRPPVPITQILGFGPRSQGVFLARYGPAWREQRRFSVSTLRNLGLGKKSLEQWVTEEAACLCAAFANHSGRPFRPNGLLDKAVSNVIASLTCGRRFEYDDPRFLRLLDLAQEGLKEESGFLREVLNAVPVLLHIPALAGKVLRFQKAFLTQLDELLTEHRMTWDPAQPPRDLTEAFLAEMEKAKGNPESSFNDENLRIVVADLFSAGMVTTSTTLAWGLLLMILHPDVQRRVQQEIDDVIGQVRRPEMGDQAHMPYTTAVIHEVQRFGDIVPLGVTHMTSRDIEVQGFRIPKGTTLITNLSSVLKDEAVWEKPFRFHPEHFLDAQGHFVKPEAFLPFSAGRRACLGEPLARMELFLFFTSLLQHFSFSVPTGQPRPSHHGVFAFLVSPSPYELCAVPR
# [16] = target: Free fatty acid receptor 1 (Mus musculus, UniProt Q76JU9); test: Positive allosteric modulation of mouse GPR40
# Chain of Free fatty acid receptor 1 (Mus musculus, UniProt Q76JU9) (Q76JU9 whole entry): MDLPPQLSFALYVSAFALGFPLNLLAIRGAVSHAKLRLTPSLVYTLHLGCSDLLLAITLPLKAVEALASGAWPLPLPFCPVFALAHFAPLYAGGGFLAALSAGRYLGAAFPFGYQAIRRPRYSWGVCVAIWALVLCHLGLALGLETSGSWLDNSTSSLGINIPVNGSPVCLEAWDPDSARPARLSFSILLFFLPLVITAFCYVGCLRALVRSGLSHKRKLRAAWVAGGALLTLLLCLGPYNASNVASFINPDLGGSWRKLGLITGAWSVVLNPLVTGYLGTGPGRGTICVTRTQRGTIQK
# [17] = Solubility of the compound in FaSSIF at pH 6.5; type: ADME
# [18] = Volume of distribution at steady state in rat at 3 mg/kg, iv; type: ADME, organism-based; details: in vivo, read-out: Vdss
# Mus musculus [19] = species: Mus musculus; test: Anti-hyperglycemic activity in GPR40 knockout mouse assessed as reduction in plasma glucose level by OGTT analysis; type: functional, organism-based
# [20] = Cmax in mouse at 1 mg/kg; type: ADME, organism-based; set-up: dose 1 mg/kg; details: in vivo
# [21] = Tmax in rat at 300 mg/kg qd; type: ADME, organism-based; details: in vivo
# [22] = Toxicity in rat assessed as vacuolation in pancrease at 100 mg/kg measured for 28 days; type: organism-based; details: in vivo, time 28 day
# [23] = Cmax in rat at 1 mg/kg, po; type: ADME, organism-based; set-up: dose 1 mg/kg, route po; details: in vivo
# [24] = Oral bioavailability in rat at 1 mg/kg; type: ADME, organism-based; details: in vivo
# [25] = Clearance in mouse at 3 mg/kg, iv; type: ADME, organism-based; details: in vivo
# [26] = AUC (0-7hrs) in mouse at 1 mg/kg; type: ADME, organism-based; set-up: dose 1 mg/kg; details: in vivo
# Rattus norvegicus [27] = test: Anti-hyperglycemic activity against Sprague-Dawley rat assessed as reduction in plasma glucose AUC at 0.3 mg/kg, po measured for 20 to 120 mins by OGTT analysis; type: functional, organism-based; details: time lower 20.0 min, time upper […]
# [28] = Toxicity in rat assessed as NOAEL by measuring AUC (0 to 24 hrs) measured for 28 days; details: in vivo, time 28 day
# [29] = Total AUC in rat at 1 mg/kg, po; type: ADME, organism-based; set-up: dose 1 mg/kg, route po; details: in vivo
# [30] = Cmax in rat at 300 mg/kg qd; type: ADME, organism-based; set-up: dose 300 mg/kg; details: in vivo
# [31] = Volume of distribution at steady state in mouse at 3 mg/kg, iv; type: ADME, organism-based; details: in vivo, read-out: Vdss
# [32] = AUC (0 to 24 hrs) in rat at 300 mg/kg qd; type: ADME, organism-based; set-up: dose 300 mg/kg; details: in vivo
# [33] = Solubility in phosphate buffer at pH 6.5; type: physicochemical
# [34] = Clearance in rat at 3 mg/kg, iv; type: ADME, organism-based; details: in vivo
# Rattus norvegicus [35] = test: Anti-hyperglycemic activity against Sprague-Dawley rat assessed as reduction in plasma glucose AUC at 0.3 mg/kg, po measured at 3 hrs in presence of BMS-538305 by OGTT analysis; type: functional; set-up: scale not given: the % may be the effect or the level left
# [36] = Solubility of the compound in FeSSIF at pH 5; type: ADME
# [37] = Cmax in mouse at 1 mg/kg, po; type: ADME, organism-based; set-up: dose 1 mg/kg, route po; details: in vivo
# [38] = Toxicity in rat assessed as reduction in cell size at 100 mg/kg measured for 28 days; type: organism-based; details: in vivo, time 28 day
# Rattus norvegicus [39] = test: Anti-hyperglycemic activity against Sprague-Dawley rat assessed as reduction in plasma glucose AUC at 0.3 mg/kg, po measured for 20 to 120 mins in presence of BMS-538305 by OGTT analysis; type: functional; set-up: scale not given: the % may be the effect or the level left; details: time 20-120 min
# [40] = Plasma protein binding in mouse assessed as fraction unbound; type: ADME, cell-free
# [41] = Metabolic stability in mouse liver microsome assessed as parent compound remaining after 10 mins; type: ADME; details: liver microsomes, read-out: Stability
# Rattus norvegicus [42] = test: Anti-hyperglycemic activity against Sprague-Dawley rat assessed as reduction in plasma glucose level at 3 mg/kg, po measured for 20 to 120 mins by OGTT analysis; type: functional, organism-based; details: time lower 20.0 min, time upper […]
# [43] = target: T1, Free fatty acid receptor 1; test: Positive allosteric modulation of human GPR40 expressed in HEK293 cells assessed as cAMP accumulation; type: cell-based
# [44] = Total AUC in mouse at 1 mg/kg, po; type: ADME, organism-based; set-up: dose 1 mg/kg, route po; details: in vivo
# Cytochrome P450 2C8 = target: T3, Cytochrome P450 2C8 (Homo sapiens, UniProt P10632); test: Inhibition of CYP2C8 in human liver microsomes; type: ADME, Microsome
# T3 sequence (P10632 whole entry): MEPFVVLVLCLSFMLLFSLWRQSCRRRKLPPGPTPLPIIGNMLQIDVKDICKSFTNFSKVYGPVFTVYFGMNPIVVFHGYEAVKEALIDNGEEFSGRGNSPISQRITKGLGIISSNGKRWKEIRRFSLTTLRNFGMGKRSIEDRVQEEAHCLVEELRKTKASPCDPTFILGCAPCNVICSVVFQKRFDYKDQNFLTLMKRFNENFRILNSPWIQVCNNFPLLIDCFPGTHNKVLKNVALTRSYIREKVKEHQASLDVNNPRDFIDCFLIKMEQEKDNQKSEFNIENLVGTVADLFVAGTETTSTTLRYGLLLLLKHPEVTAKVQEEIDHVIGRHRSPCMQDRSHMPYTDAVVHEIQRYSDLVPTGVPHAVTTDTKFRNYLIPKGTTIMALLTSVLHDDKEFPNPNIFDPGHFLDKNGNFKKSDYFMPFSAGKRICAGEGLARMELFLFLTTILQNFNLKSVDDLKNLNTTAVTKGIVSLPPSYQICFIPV
# [45] = Tmax in rat at 60 mg/kg qd; type: ADME, organism-based; details: in vivo
# Cytochrome P450 2C19 = Cytochrome P450 2C19 (Homo sapiens, UniProt P33261); test: Inhibition of CYP2C19 in human liver microsomes; type: ADME, Microsome
# Chain of Cytochrome P450 2C19 (P33261 whole entry): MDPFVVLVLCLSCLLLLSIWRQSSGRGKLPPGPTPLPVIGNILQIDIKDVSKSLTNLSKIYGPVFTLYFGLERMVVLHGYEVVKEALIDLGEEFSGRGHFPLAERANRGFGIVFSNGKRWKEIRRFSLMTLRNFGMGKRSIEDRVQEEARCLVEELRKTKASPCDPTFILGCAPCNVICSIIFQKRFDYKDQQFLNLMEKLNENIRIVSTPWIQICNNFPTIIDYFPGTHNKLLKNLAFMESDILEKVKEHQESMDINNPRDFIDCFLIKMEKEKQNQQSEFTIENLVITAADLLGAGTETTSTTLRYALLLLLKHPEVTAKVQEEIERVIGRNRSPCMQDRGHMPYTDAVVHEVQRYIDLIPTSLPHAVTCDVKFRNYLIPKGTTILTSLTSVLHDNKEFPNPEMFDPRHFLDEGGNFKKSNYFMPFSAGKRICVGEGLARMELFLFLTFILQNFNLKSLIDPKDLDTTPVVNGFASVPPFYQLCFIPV
# Mus musculus [46] = species: Mus musculus; test: Anti-hyperglycemic activity in wild type mouse assessed as reduction in plasma glucose level by OGTT analysis; type: functional, organism-based
# [47] = AUC (0 to 24 hrs) in rat at 60 mg/kg qd; type: ADME, organism-based; set-up: dose 60 mg/kg; details: in vivo
# [48] = Tmax in rat at 12 mg/kg qd; type: ADME, organism-based; details: in vivo
# Cytochrome P450 3A4 = Cytochrome P450 3A4 (Homo sapiens, UniProt P08684); test: Inhibition of CYP3A4 in human liver microsomes; type: ADME, Microsome
# Chain of Cytochrome P450 3A4 (P08684 whole entry): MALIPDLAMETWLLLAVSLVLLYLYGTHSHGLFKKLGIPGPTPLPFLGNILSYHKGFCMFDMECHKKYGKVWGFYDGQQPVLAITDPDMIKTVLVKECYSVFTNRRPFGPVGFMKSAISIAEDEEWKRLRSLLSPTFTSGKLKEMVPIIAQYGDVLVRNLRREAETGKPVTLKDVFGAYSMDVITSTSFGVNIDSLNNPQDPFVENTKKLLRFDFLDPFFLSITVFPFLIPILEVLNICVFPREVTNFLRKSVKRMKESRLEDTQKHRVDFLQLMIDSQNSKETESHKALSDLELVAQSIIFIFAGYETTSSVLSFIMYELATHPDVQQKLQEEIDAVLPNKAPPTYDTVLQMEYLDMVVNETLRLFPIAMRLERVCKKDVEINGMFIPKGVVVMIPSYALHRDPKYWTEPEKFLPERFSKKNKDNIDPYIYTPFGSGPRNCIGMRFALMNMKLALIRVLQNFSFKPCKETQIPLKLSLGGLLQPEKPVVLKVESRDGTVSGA
# [49] = Toxicity in rat assessed as NOAEL at 100 mg/kg measured for 28 days; type: organism-based; details: in vivo, time 28 day
# [50] = Cmax in rat at 60 mg/kg qd; type: ADME, organism-based; set-up: dose 60 mg/kg; details: in vivo
structure (smiles),measurement,setting,value
COCCCO[C@H]1CN(c2ccc(O[C@@H]3CCN(c4cc(OC)ncc4Cl)C[C@H]3C)cc2)[C@@H](CC(=O)O)[C@@H]1C,AUC,[1],84 µM·h
same,solubility,[2],1300 µg/mL
same,remaining at 10 min,[3],100%
same,IC50,Cytochrome P450 2C9,34 µM
same,logD,[4],1.32
same,EC50,[5],0.049 µM
same,IC50,Cytochrome P450 2B6,29 µM
same,AUC,[6],1480 µM·h
same,Activity,[7],Non-Toxic
same,bioavailability,[8],100%
same,Cmax,[9],11 µM
same,Activity,Rattus norvegicus [10],inactive
same,half-life,[11],3.6 h
same,remaining at 10 min,[12],77%
same,Papp A→B,[13],24.3 ×10⁻⁶ cm/s
same,half-life,[14],3.4 h
same,Fu,[15],< 0.1%
same,IC50,Cytochrome P450 2D6,40 µM
same,EC50,[16],0.014 µM
same,solubility,[17],239 µg/mL
same,Vd,[18],1.1 L/kg
same,Activity,Mus musculus [19],inactive
same,Cmax,[20],2.8 µM
same,Tmax,[21],2 h
same,Activity,[22],Toxic
same,Cmax,[23],1.6 µM
same,bioavailability,[24],100%
same,clearance,[25],7.9 mL/min/kg
same,AUC(0-t),[26],4.4 µM·h
same,Activity,Rattus norvegicus [27],inactive
same,AUC at […],[28],53 µM·h
same,AUC,[29],2.2 µM·h
same,Cmax,[30],151 µM
same,Vd,[31],1.4 L/kg
same,AUC,[32],3150 µM·h
same,solubility,[33],28 µg/mL
same,clearance,[34],5.9 mL/min/kg
same,Activity,Rattus norvegicus [35],148%
same,solubility,[36],383 µg/mL
same,Cmax,[37],2.8 µM
same,Activity,[38],Non-Toxic
same,Activity,Rattus norvegicus [39],26%
same,Fu,[40],0.9%
same,remaining at 10 min,[41],79%
same,Activity,Rattus norvegicus [42],Active
same,EC50,[43],1.8 µM
same,AUC,[44],4.4 µM·h
same,IC50,Cytochrome P450 2C8,8.3 µM
same,Tmax,[45],2 h
same,IC50,Cytochrome P450 2C19,40 µM
same,Activity,Mus musculus [46],Active
same,AUC,[47],534 µM·h
same,Tmax,[48],2 h
same,IC50,Cytochrome P450 3A4,40 µM
same,Activity,[49],Non-Toxic
same,Cmax,[50],49 µM
